Data on 1 compound can be found in US20090311237A1, “Combination therapy using a soluble hyaluronidase and a bisphosphonate” (priority 2008, published 2009).

For one data set, the system named is Sprague Dawley rats. The data set can be described thus: Injection site reactions (gross ISR incidence, lesion area) after intradermal injection of zoledronic acid with or without rHuPH20. Format: in vivo, rat. The following applies: for AUC (accumulated ISR area over 6 days) / Peak lesion area: rat ID 0.1 mL, rHuPH20 0 U/mL. The method, then:
A rodent model of local injection site injury caused by ZA injection was employed for the study. […] Injection into the dermis facilitates external visualization and assessment of the irritant.
Nine to ten week old female Sprague Dawley rats, having approximate body weight of 200-250 grams, were employed for the study. One day prior to injection, rats were shaved and hair on the back and flank area were removed by Nair® cream (exposure less than 1 min to depilation cream) followed by deep wash with warm tap water. On the day of dosing, all rats were injected intradermally in flank area (one or two injection spots per side), with 0.1 or 0.2 mL as indicated of zoledronic acid solution, with or without rHuPH20, at each corresponding concentration as shown in study design table. Injection site appearance was observed and quantified by blind assessment each day following the injection until the end of the study, at which time animals were sacrificed and the skin around the dosing area as well as a part of the skin that was not effected by the dosing were collected and fixed in 10% neutral buffered formalin (NBF) and further embedded in paraffin, 5 μm sections were cut for H&E stain and histopathology evaluation.
Lesion area was calculated by the following formula: W×L×¼π. Quantitative results were analyzed using one-way analysis of variance (ANOVA) method, followed by Dunnett's comparison method (Prizm 4 program). The probability values of less than 0.05 (two-tailed) were used as the critical level of significance for all tests. Groups with a sample size of two were excluded from analysis. If the sample size was 2 for the control group, there were no statistical analyses at that interval for any of the groups. Histopathologic findings were characterized by semi-quantitative analysis of necrosis and infiltration in the skin tissue. The incidences of each finding were compared with control groups by Chi-square test.
Prior to ZA intradermal injection, rats were randomized by body weight into 7 groups of 1 or 2 rats per group (Table 2). Rats were injected with either 0.1 mL or 0.2 mL of each corresponding concentration intradermally at two separate locations on each shaved flank side for a total of 4 injections for each animal. Injection sites were observed daily post-injection for four days. Pictures of injection site reaction (ISR) area were captured by digital camera and lesion area was scored for induration, erythema, or ulceration. Two perpendicular diameters (width & length) of injection site lesion were measured by microcaliper. The lesion area was defined as the area bounded by the outer edge of the erythemic zone. Upon completion of the study, the animals were euthanized and skin at the injection site and from an untreated area of the back of the rat were excised, mounted flat onto a piece of cardboard, and placed in 10% NBF.
A series of experiments were conducted in which various dosing concentrations of rHuPH20 were tested for the ability to reduce acute injection site lesions. Prior to ZA intra-dermal injection, rats were randomized by body weight into 11 groups of 2 rats per group. Rats were injected intradermally with 0.1 mL of each co-formulated solution as shown in Table 5 and observed daily with ISR development assessed as in Section B. Four days after injection, rats were sacrificed and the skin at the injection site as well as untreated skin from the back was excised, mounted flat onto a piece of cardboard, and placed in 10% NBF.
Prior to ZA intra-dermal injection, rats were randomized by body weight into 6 groups of 3 rats per group (Table 6). Rats were intradermally injected with 0.1 mL of each corresponding co-formulated solution at two separate locations, two on each shaved flank side, for a total of 4 injections for each animal. Injection sites were observed daily with ISR development assessed as in Section B for 6 days. […]

The conditions of data set [1]: rats; single IV administration of 1.6 mg/kg; cited from earlier work.

The structures appear in SMILES notation.

For the compound `O=P(O)(O)C(O)(Cn1ccnc1)P(=O)(O)O` [ZA, 1-hydroxy-2-(1H-imidazol-1-yl)ethylidene-1,1-bisphosphonic acid], the entries for the “AUC (accumulated ISR area over 6 days)” value in the data set on Sprague Dawley rats (ZA 0.05 mg/mL), in the data set with Sprague Dawley rats (ZA 0.1 mg/mL) and with Sprague Dawley rats (ZA 0.4 mg/mL) were 110.8 ± 5.6 mm^2 · day, 108.3 ± 6.9 mm^2 · day and 226.5 ± 9.1 mm^2 · day, respectively. In addition, the Peak lesion area with Sprague Dawley rats (ZA 0.05 mg/mL) is listed as 28.8 ± 1.8 mm^2; in the data set on Sprague Dawley rats (ZA 0.1 mg/mL), 32.3 ± 2.7 mm^2; in the data set on Sprague Dawley rats (ZA 0.4 mg/mL), 62.9 ± 5.1 mm^2. Further, the erythema area with Sprague Dawley rats (rat ID, ZA alone 0.05-0.2 mg/ml) was ~35 mm^2. In addition, the injection site finding entry in data set [1] was “local irritation at the injection site”.
